The text below walks through data of US9283236B2 (HUMAN MATRIX SCIENCES, LLC, priority 2008, dated 2016).

Entries after “also recorded” stand apart in the source; their conditions may differ.

The subject of data set [1] is human fetal cardiac fibroblasts. The data set can be described thus: One-step RT-PCR of elastin mRNA in cardiac fibroblast cultures. It is filed as cell-based.
Data set [2] has the same test system. The data set can be described thus: Quantitative assay of [3H]valine-labeled insoluble elastin. The class given is cell-based. The following applies: 72 hours.
Data set [3] has the same test system. The data set can be described thus: Immunostaining of elastic fibers with anti-elastin antibody. To be noted: 10 μM PP2, 1 hour pretreatment, 50 nM aldosterone. The class given is cell-based. As to the method: (§1) At the end of the 72-hour incubation period with the indicated treatment, confluent cultures were either fixed in ice-cold 100% methanol at −20° C. (for elastin staining) or in 4% paraformaldehyde at room temperature (for collagen staining) for 30 minutes and blocked with 1% normal goat serum for 1 hour at room temperature. The cultures were then incubated for 1 hour with 10 μg/ml polyclonal antibody to tropoelastin or with 10 μg/ml polyclonal antibody to collagen type I. All cultures were then incubated for an additional hour with fluorescein-conjugated goat anti-rabbit or with fluorescein-conjugated rabbit anti-goat secondary antibodies to detect elastin and collagen type I staining, respectively. Nuclei were counterstained with propidium iodide. Secondary antibody alone was used as a control. All of the cultures were then mounted in Elvanol and examined with a Nikon Eclipse E1000 microscope attached to a cooled charge-coupled device camera (Retiga EX; QImaging, Surrey, BC, Canada) and a computer-generated video analysis system (Image-Pro Plus software; Media Cybernetics, Silver Spring, Md.).
Immunostaining—At the end of the 72-hour incubation period with the indicated treatment, confluent cultures were fixed in cold 100% methanol at −20° C. […]

For the next data set, the system named is c-Src. The data set can be described thus: Western blot of phospho-c-Src (Tyr416). The class given is cell-based, human. As to the method:
(§2) Western blotting—Confluent fetal human cardiac fibroblast cultures were exposed with or without the treatment specified for the indicated time points. At the end of each experiment cells were lysed using an RIPA buffer (50 mM Tris.HCl, pH 7.4; 150 mM NaCl; 1 mM EDTA; 10 mM NaF; 1% Triton X-100; 0.1% SDS; 1% Na deoxycholate) containing a cocktail of antiproteases (20 μg/ml leupeptin, 10 μg/ml aprotinin, 0.1 mM PMSF, 1 mM DTT) and antiphosphates ([…] orthovanadate, 2 μg/ml pepstatin). Then 40-60 μg of protein extract was resuspended in sample buffer (0.5 M Tris.HCl, pH 6.8; 10% SDS; 10% glycerol; 4% 2-β-mercaptoethanol; and 0.05% bromophenol blue), and the mixture was boiled for 5 minutes. Protein lysates were resolved by precast SDS-PAGE gel (4-12% gradient), transferred to nitrocellulose membranes, blocked for an hour, and then immunoblotted with polyclonal anti-MR antibody, anti-phospho-c-Src (Tyr416) antibody, anti-phospho-Akt (Ser473) antibody, anti-Gα13 (goat) antibody, anti-SCAP2 antibody, or with buffer (TBS-T) at 4° C. overnight. All blots were then incubated with the appropriate HRP-conjugated secondary antibodies for an hour and examined using the enhanced chemiluminescence detection system. Blots were stripped and reprobed using specified antibodies. […] The degree of expression or phosphorylation of immunodetected signaling molecules was measured by densitometry.

For a further data set, the system named is Akt. The data set can be described thus: Western blot of phospho-Akt (Ser473). The class given is cell-based, human. As to the method:
as §2
For orientation: In western blotting, separated proteins are transferred to a membrane and probed.

For data set [4], the system named is human fetal cardiac fibroblasts. The data set can be described thus: One-step RT-PCR of collagen type I mRNA in cardiac fibroblast cultures. The class given is cell-based. To be noted: 1 to 50 nmol/L, 24 hours, normalized to GAPDH mRNA, vs untreated control.
Data set [5] has the same test system. The data set can be described thus: Immunostaining of collagen type I fibers in confluent cultures. The class given is cell-based. To be noted: 1 to 50 nmol/L, 72 hours.
For data set [6] the test system is unchanged. Kind of data set: Quantitative assay of [3H]valine-labeled immunoprecipitable tropoelastin. It is filed as cell-based. To be noted: 1 to 50 nmol/L, 72 hours, vs untreated. The method, then: Fetal human cardiac fibroblasts were grown to confluence in 35-mm culture dishes (100,000 cells/dish) in quadruplicate. […] Cultures were incubated for 72 hours, and the soluble and insoluble elastin were assessed separately in each dish. The cells were extensively washed with phosphate-buffered saline, and the soluble proteins present in the intracellular compartments were extracted overnight at 4° C. with 0.1 mol/L acetic acid in the presence of proteinase inhibitors. After centrifugation, the supernatants were precleaned by 30-minute incubation with 50 μl of 4% protein A-beaded agarose, and then 500 μl of the supernatant was incubated with 5 μg of polyclonal antibody to tropoelastin for 2 hours and subsequently with 50 μl of 4% protein A-beaded agarose for 3 hours at 4° C. The protein A-containing beads were sedimented by centrifugation, washed with immunoprecipitation buffer, mixed with scintillation fluid, and counted. […] The resulting pellets containing the insoluble elastin were then solubilized by boiling in 200 μl of 5.7 N HCl for 1 hour, and the aliquots were mixed in scintillation fluid and counted. […] Final results reflecting amounts of metabolically labeled insoluble elastin in individual cultures were normalized per their DNA content and expressed as counts per minute per 1 μg of DNA.

For data set [7] the test system is unchanged. The data set can be described thus: Cytotoxic effects of supraphysiological aldosterone in cardiac fibroblast cultures. To be noted: aldosterone 100 nmol/L and 1 μmol/L. It is filed as cell-based.
For data set [8], the system named is adult human cardiac fibroblasts. Kind of data set: One-step RT-PCR of elastin mRNA in adult cardiac fibroblasts. It is filed as cell-based. To be noted: 1 to 50 nmol/L, 24 hours, normalized to GAPDH mRNA.
Data set [9] has the same test system. The data set can be described thus: Anti-elastin immunostaining in adult cardiac fibroblasts. The class given is cell-based. To be noted: 1 to 50 nmol/L, 72 hours. As to the method:
as §1, with “Control cell cultures received an equal amount of the solvent vehicle. […] ScienCell (San Diego, Calif.). At” for “At”, “-20°” for “−20°”, “(for elastin staining) or in 4% paraformaldehyde at room temperature (for collagen staining) for 30 minutes and blocked with 1% normal goat serum for 1 hour at room temperature.” left out, “E1000” left out

Another data set relates to IGF-IR. The data set can be described thus: IGF-IR immunoprecipitation and anti-phosphotyrosine blot. It is filed as cell-based, human. As to the method:
Cells were lysed using an radioimmunoprecipitation assay buffer [50 mmol/L Tris-HCl, pH 7.4, 150 mmol/L NaCl, 1 mmol/L ethylenediamine tetraacetic acid, 10 mmol/L NaF, 1% Triton X-100, 0.1% sodium dodecyl sulfate, 1% sodium deoxycholate containing a cocktail of antiproteases (20 μg/ml leupeptin, 10 μg/ml aprotinin, 0.1 mmol/L phenylmethylsulfonyl fluoride, and 1 mmol/L dithiothreitol) and antiphosphates ([…] orthovanadate and 2 μg/ml pepstatin)], and 300 μg of protein extract was incubated with an antibody against IGF-IRβ for 1 hour at 4° C., followed by the addition of 4% protein A-beaded agarose left overnight, as previously described. The resulting protein-antibody conjugate was centrifuged at 4° C. and washed four times with phosphate-buffered saline. The final pellet was resuspended in sample buffer (0.5 mol/L Tris-HCl, pH 6.8, 10% sodium dodecyl sulfate, 10% glycerol, 4% 2-B-mercaptoethanol, and 0.05% bromphenol blue), and the mixture was boiled for 5 minutes. Proteins were resolved by 12% sodium dodecyl sulfate-polyacrylamide gel electrophoresis, transferred to nitrocellulose membranes, and then immunoblotted with anti-p-Tyr or anti-IGF-IR antibodies. The degree of expression or phosphorylation of immunodetected signaling molecules was measured by densitometry.
At the end of each experiment the cells were lysed as specified above, and 300 μg of protein extract were then precleared for 1 hour with normal rabbit agarose conjugated-IgG at 4° C. and incubated with rabbit polyclonal antibodies against IGF-IR-β, c-Src, or with Gα13 for 1 hour at 4° C., followed by the addition of 4% protein A-beaded agarose and left overnight. The resulting protein-antibody conjugate was centrifuged at 4° C. and washed four times with PBS. The final pellet was resuspended in sample buffer, and the proteins were resolved. Following immunoprecipitation of IGF-IR-β, the membrane was immunoblotted using monoclonal anti-p-Tyr antibody, stripped, and reprobed using anti-IGF-IR-β. Following immunoprecipitation of c-Src, the membranes were immunoblotted using polyclonal goat antibodies against anti-Gα13, while those immunoprecipitated with anti-Gα13 were developed with monoclonal anti-c-Src antibody. Blots were stripped and re-probed for equal loading.
The degree of expression or phosphorylation of immunodetected signaling molecules was measured by densitometry.

Another data set relates to Gα13 and c-Src. The data set can be described thus: Co-immunoprecipitation of Gα13 and c-Src. The class given is cell-based, human.
Data set [10] concerns rat myocardial infarction model. Kind of data set: Rat myocardial infarction model, postinfarction scar. The class given is in vivo. The following applies: treated during the postinfarction period, vs vehicle-treated animals.
[11] abbreviates: 10 μM PP2 1 hour preincubation or 72 hour Gα13 siRNA transfection.
Where [12] appears, read: 50 nM aldosterone, 30 minutes to 16 hours.

In the case of `CC(C)(C)n1nc(-c2ccc(Cl)cc2)c2c(N)ncnc21` [PP2], the “effect on aldosterone-induced increase in elastin mRNA levels” value in data set [1] (agent added 1 hour (CT04 2 hours) before aldosterone, 24 hours) is listed as “abolished an increase in elastin mRNA levels”. The “effect on aldosterone-induced increase in insoluble elastin production” value in [2] (agent added 1 hour before aldosterone (50 nM or 1 to 50 nmol/L)) is given as “eliminated the aldosterone-induced increase in the net deposition of insoluble elastin”. Moreover, in [3], the “effect on aldosterone-induced upregulation in elastic fiber production” value is “abolished an increase in elastin mRNA levels and the consequent upregulation in elastic fiber production”. For the same compound, the “effect on aldosterone-induced c-Src phosphorylation” value in the data set with c-Src (setting [11]) is on record as “abolished this effect”. In the data set on Akt (setting [11]), the “effect on aldosterone-induced increase in phosphorylation of Akt” value is “is indeed eliminated; also recorded: eliminates this effect”.

For `C[C@]12CCC(=O)C=C1CC[C@@H]1[C@@H]2[C@@H](O)C[C@]2(C=O)[C@@H](C(=O)CO)CC[C@@H]12` [aldosterone], the “collagen type I mRNA transcript levels” value in data set [4] is “significant increase in the steady-state level of collagen type I mRNA; also recorded: significantly increased collagen type I mRNA transcript levels”. Also, the “deposition of collagen fibers” value in data set [5] is given as “subsequent deposition of collagen fibers”. Also, in data set [1] (setting [12]), the “time at which tropoelastin mRNA begins to significantly increase” value was 1 h and the “time of maximum tropoelastin mRNA level” value was in the range of 3 to 6 h. Further, the “elastin mRNA transcript levels” value in [1] (1 to 50 nmol/L, 24 hours, normalized to GAPDH mRNA, vs untreated control) is on record as “heightened elastin mRNA levels, in a dose-dependent manner; also recorded: dose-dependently increased elastin mRNA transcript levels”. The “[3H]valine-labeled tropoelastin” value in data set [6] is on record as “proportional increase; also recorded: up to approximately three times more”. Moreover, the “[3H]valine incorporation into insoluble elastin” value in data set [2] (1 to 50 nmol/L, vs untreated) is “proportional increase; also recorded: incorporate significantly more [^3H]valine into extracellular insoluble elastin”. Besides, the cytotoxic effects entry in [7] is given as “did not produce any cytotoxic effects”. The “elastin mRNA transcript levels, adult cardiac fibroblasts” value in data set [8] was “dose-dependently increased elastin mRNA transcript levels”. Besides, the “number of immunodetectable elastic fibers, adult cardiac fibroblasts” value in data set [9] is listed as “significantly increased the number of immunodetectable elastic fibers”. In addition, in the data set on IGF-IR (50 nmol/L aldosterone with 10, 25 or 50 ng/ml IGF-I, serum-free, 10 minutes), the “IGF-IR tyrosine phosphorylation, aldosterone together with IGF-I vs IGF-I alone” value is listed as “exhibit higher levels of IGF-IR tyrosine phosphorylation than their respective counterparts treated with the same doses of IGF-I alone”. Besides, in the data set with IGF-IR (10-minute exposure, 10% fetal bovine serum, aldosterone or BSA-conjugate 50 nM, IGF-I 100 ng/ml), the “tyrosine phosphorylation of the IGF-IR” value was “transient increase in tyrosine phosphorylation of the IGF-IR above basal level; also recorded: produced a transient increase in tyrosine phosphorylation of the IGF-IR in control cultures; also recorded: significant increase in tyrosine phosphorylation of IGF-IR over basal levels”. Also, in the data set on IGF-IR (presence vs absence of fetal bovine serum), the “tyrosine phosphorylation of the IGF-IR, dependence on serum” value is listed as “induced a similar effect only in the presence of serum”. The “phosphorylation of c-Src on Tyr416” value in the data set on c-Src (50 nM aldosterone, 10 minutes) is listed as “increased phosphorylation of c-Src on Tyr416; also recorded: leading to activation of c-Src”. Further, the “time at which the Gα13/c-Src interaction was most evident” value in the data set on Gα13 and c-Src (50 nM aldosterone for 1, 5 or 10 minutes) was found to be 5 min. The “interaction between c-Src and Gα13” value in the data set on Gα13 and c-Src (vs untreated controls) was “increases the interaction between Gα13 and c-Src”. In addition, the “basal phosphorylation of Akt” value in the data set with Akt (50 nM aldosterone, 10 minutes) is listed as “significant increase in the basal phosphorylation of Akt”.

With `COC(=O)[C@@H]1CC2=CC(=O)CC[C@]2(C)[C@@]23O[C@@H]2C[C@@]2(C)[C@@H](CC[C@@]24CCC(=O)O4)[C@H]13` [eplerenone], the postinfarction scar composition entry in [10] is “produced scars with abundant elastic fibers”.
